From patent publication US20260166162A1, “CARBON CHAIN SUBSTANCE FOR REGULATING TRANSMEMBRANE TRANSPORT AND FLUIDITY OF CELL MEMBRANES, AND PREPARATION AND USE THEREOF” (priority 2022, published 2026)
Where two headings read alike, the source gives them in different places.

What was measured:
Assay type in all cases: cell-based
293T cells = assay: Cellular phagocytosis of DiD-loaded lipid vesicles (nano-drugs) by 293T cells (Example II-51, Table II-29); details: 293T cells pretreated 4 h, DiD lipid vesicles 2 h, n=3, untreated control 226.46 ± 1.26
[1] = system: influenza pseudovirus H7N9-Fluc; assay: microbe, parasite or virus in culture; details: n=3; for inhibition at 0.002 µM / inhibition at 0.005 µM / inhibition at 0.01 µM / inhibition at 0.05 µM / inhibition at 0.1 µM / inhibition at 1 µM / inhibition at 10 µM / inhibition at 50 µM / inhibition at 100 µM: Pseudovirus, H7N9, read-out: Inhibition rate (%)
Epithelial cells = assay: Interaction of GFP-labelled complexes with cell membrane of epithelial cells (Example II-52, Table II-30); details: GFP-labelled complex, epithelial cells pretreated 4 hours, n=3
Description: The fatty acids were combined with water-soluble small molecules to form a complex, which were labeled with GFP fluorescence to detect cell membrane fluorescence. […] After the cells were stably adhered, the water-soluble fatty acid complexes in the following table were added to the cell culture medium. […] The medium with the drug was pipetted and replaced with normal DMEM medium. […] The green fluorescence intensity was analyzed by imageJ (see Table II-30, n=3).

human pancreatic β-cells = assay: Insulin secretion from human islet β cells (ELISA of supernatant); details: 6 h
HIV pseudovirus (18A-41) = details: 293T cells pretreated 4 h, n=3
[2] = 100 μM, negative value = promotes infection

| Compound | Fluorescence intensity (293T cells; 2 nM) | Fluorescence intensity (293T cells; 5 nM) | Fluorescence intensity (293T cells; 10 nM) | Fluorescence intensity (293T cells; 50 nM) | Fluorescence intensity (293T cells; 100 nM) | Fluorescence intensity (293T cells; 1 uM) | Fluorescence intensity (293T cells; 10 uM) | Fluorescence intensity (293T cells; 50 uM) | Fluorescence intensity (293T cells; 100 uM) | Inhibition rate (%) (HIV pseudovirus (18A-41); 2 nM) | Inhibition rate (%) (HIV pseudovirus (18A-41); 5 nM) | Inhibition rate (%) (HIV pseudovirus (18A-41); 10 nM) | Inhibition rate (%) (HIV pseudovirus (18A-41); 50 nM) | Inhibition rate (%) (HIV pseudovirus (18A-41); 100 nM) | Inhibition rate (%) (HIV pseudovirus (18A-41); 1 μM) | Inhibition rate (%) (HIV pseudovirus (18A-41); 10 μM) | Inhibition rate (%) (HIV pseudovirus (18A-41); 50 μM) | Inhibition rate (%) (HIV pseudovirus (18A-41); [2]) | other results |
| --- | --- | --- | --- | --- | --- | --- | --- | --- | --- | --- | --- | --- | --- | --- | --- | --- | --- | --- | --- |
| CCCCCCCCC(=O)O [Nonanoic acid] | 157.30 ± 7.06 | 176.50 ± 7.06 | 106.35 ± 4.65 | 98.90 ± 8.26 | 106.35 ± 5.06 | 243.20 ± 13.65 | 135.36 ± 11.03 | 64.86 ± 5.54 | 104.28 ± 10.25 | – | – | – | – | – | – | – | – | – | inhibition at 0.002 µM ([1]; 2 nM): 42 ± 3.06%; inhibition at 0.005 µM ([1]; 5 nM): 49.7 ± 1.56%; inhibition at 0.01 µM ([1]; 10 nM): 58.3 ± 4.02%; inhibition at 0.05 µM ([1]; 50 nM): 57.3 ± 1.66%; inhibition at 0.1 µM ([1]; 100 nM): 36.4 ± 2.33%; inhibition at 1 µM ([1]; 1 μM): -4.93 ± 0.23%; inhibition at 10 µM ([1]; 10 μM): 34.8 ± 3.06%; inhibition at 50 µM ([1]; 50 μM): 40.1 ± 1.23%; inhibition at 100 µM ([1]; 100 μM): 43.8 ± 4.38% |
| CCCCCCCCCCCCCCCCCCCC(=O)OC(C)C(N)C(=O)O (stereo not drawn) [Thr-arachidic acid] | – | – | – | – | – | – | – | – | – | – | – | – | – | – | – | – | – | – | Mean fluorescence intensity (Epithelial cells; 0 Hours after medium replaced): 109.4 ± 3.7; Mean fluorescence intensity (Epithelial cells; 2 Hours after medium replaced): 104.4 ± 5.4; Mean fluorescence intensity (Epithelial cells; 4 Hours after medium replaced): 91.5 ± 6.7; Mean fluorescence intensity (Epithelial cells; 8 Hours after medium replaced): 54.3 ± 7.2; Mean fluorescence intensity (Epithelial cells; 12 Hours after medium replaced): 41.4 ± 3.4; Mean fluorescence intensity (Epithelial cells; 24 Hours after medium replaced): 34.2 ± 5.2; Insulin (human pancreatic β-cells; 2 nM): 0.32 ng/mL; Insulin (human pancreatic β-cells; 5 nM): 0.31 ng/mL; Insulin (human pancreatic β-cells; 10 nM): 0.43 ng/mL; Insulin (human pancreatic β-cells; 50 nM): 0.51 ng/mL; Insulin (human pancreatic β-cells; 50 μM): 1.46 ng/mL; Insulin (human pancreatic β-cells; 100 μM): 1.42 ng/mL |
| C=CCCCCCCCCC(=O)[O-].[Na+] [Sodium undecylenate] | 135.63 ± 7.06 | 100.34 ± 8.06 | 89.79 ± 4.98 | 62.57 ± 3.60 | 57.18 ± 5.23 | 232.89 ± 12.26 | 325.29 ± 15.22 | 63.77 ± 3.37 | 58.70 ± 2.66 | – | – | – | – | – | – | – | – | – | inhibition at 0.002 µM ([1]; 2 nM): 30.5 ± 2.36%; inhibition at 0.005 µM ([1]; 5 nM): 22.1 ± 2.14%; inhibition at 0.01 µM ([1]; 10 nM): 53 ± 5.03%; inhibition at 0.05 µM ([1]; 50 nM): 56.3 ± 5.03%; inhibition at 0.1 µM ([1]; 100 nM): 53 ± 4.06%; inhibition at 1 µM ([1]; 1 μM): -7.39 ± 0.22%; inhibition at 10 µM ([1]; 10 μM): 40.2 ± 3.23%; inhibition at 50 µM ([1]; 50 μM): 71.4 ± 3.26%; inhibition at 100 µM ([1]; 100 μM): 54 ± 4.39% |
| Glucosamine-n-octanoic acid | – | – | – | – | – | – | – | – | – | 22.59 ± 6.09 | 54.47 ± 2.09 | 78.34 ± 3.66 | 89.33 ± 3.65 | 88.76 ± 4.87 | -62.33 ± 3.93 | -84.26 ± 6.61 | 51.09 ± 9.38 | 53.68 ± 6.07 | – |
| Ascorbic acid-undecanedioic acid | – | – | – | – | – | – | – | – | – | – | – | – | – | – | – | – | – | – | Inhibition rate (%) ([1]; 2 nM): 36.88 ± 5.99%; Inhibition rate (%) ([1]; 5 nM): 70.10 ± 2.01%; Inhibition rate (%) ([1]; 10 nM): 71.74 ± 5.03%; Inhibition rate (%) ([1]; 50 nM): 67.01 ± 5.59%; Inhibition rate (%) ([1]; 100 nM): 74.96 ± 2.33%; Inhibition rate (%) ([1]; 1 μM): 32.33 ± 2.37%; Inhibition rate (%) ([1]; 10 μM): 44.08 ± 1.28%; Inhibition rate (%) ([1]; 50 μM): 83.56 ± 4.03%; Inhibition rate (%) ([1]; 100 μM): 73.01 ± 4.05% |
| CCCCCCCC/C=C\CCCCCCCC(=O)OCCO [Ethylene glycol-OA] | – | – | – | – | – | – | – | – | – | 82.74 ± 5.06 | 83.09 ± 3.25 | 89.89 ± 4.06 | 94.33 ± 6.32 | 93.46 ± 3.23 | -92.33 ± 2.66 | -84.04 ± 6.24 | 79.46 ± 8.46 | 86.47 ± 5.86 | – |
| Glucose-hexadecanoic acid | – | – | – | – | – | – | – | – | – | 50.54 ± 1.56 | 57.26 ± 6.09 | 86.44 ± 5.03 | 85.46 ± 3.99 | 89.99 ± 5.07 | -94.23 ± 9.06 | -44.88 ± 1.03 | 87.59 ± 5.03 | 98.87 ± 6.03 | – |
| CCC=CCC=CCC=CCC=CCC=CCCCC(=O)OCC(O)C1OC(=O)C(O)=C1O (stereo not drawn) [Ascorbic Acid-EPA] | – | – | – | – | – | – | – | – | – | 72.04 ± 6.02 | 68.76 ± 5.79 | 86.46 ± 3.84 | 97.33 ± 5.33 | 98.77 ± 3.22 | -82.83 ± 7.59 | -64.54 ± 5.62 | 80.74 ± 4.76 | 82.84 ± 4.75 | – |
| Cc1c(C)c2c(c(C)c1O)CCC(C)(CCCC(C)CCCC(C)CCCC(C)C)O2 (stereo not drawn) [Vitamin-E, Vitamin E] | 100.41 ± 4.43 | 86.35 ± 2.47 | 67.85 ± 1.43 | 46.81 ± 1.48 | 22.67 ± 0.03 | 417.43 ± 15.23 | 217.04 ± 7.44 | 87.50 ± 2.33 | 92.89 ± 5.33 | 55.66 ± 6.03 | 61.87 ± 5.06 | 70.04 ± 4.65 | 79.33 ± 5.89 | 89.99 ± 8.97 | -84.33 ± 6.36 | 4.16 ± 0.11 | 61.36 ± 8.64 | 58.98 ± 6.37 | – |
| CCCCCCCCCC(=O)NCCCCC(N)C(=O)O (stereo not drawn) [Lys-n-decanoic acid] | – | – | – | – | – | – | – | – | – | – | – | – | – | – | – | – | – | – | Insulin (human pancreatic β-cells; 2 nM): 0.45 ng/mL; Insulin (human pancreatic β-cells; 5 nM): 0.47 ng/mL; Insulin (human pancreatic β-cells; 10 nM): 0.56 ng/mL; Insulin (human pancreatic β-cells; 50 nM): 0.60 ng/mL; Insulin (human pancreatic β-cells; 50 μM): 1.53 ng/mL; Insulin (human pancreatic β-cells; 100 μM): 1.63 ng/mL |
| CCCCCC(=O)OC(C)C(N)C(=O)O (stereo not drawn) [Thr-n-hexanoic acid] | – | – | – | – | – | – | – | – | – | – | – | – | – | – | – | – | – | – | Insulin (human pancreatic β-cells; 2 nM): 0.38 ng/mL; Insulin (human pancreatic β-cells; 5 nM): 0.37 ng/mL; Insulin (human pancreatic β-cells; 10 nM): 0.47 ng/mL; Insulin (human pancreatic β-cells; 50 nM): 0.54 ng/mL; Insulin (human pancreatic β-cells; 50 μM): 1.41 ng/mL; Insulin (human pancreatic β-cells; 100 μM): 1.46 ng/mL |
| CCCCCC/C=C\CCCCCCCC(=O)OC(C)C(N)C(=O)O (stereo not drawn) [Threonine-c-9-hexadecanoic acid] | – | – | – | – | – | – | – | – | – | – | – | – | – | – | – | – | – | – | Inhibition rate (%) ([1]; 2 nM): 56.47 ± 5.47%; Inhibition rate (%) ([1]; 5 nM): 79.21 ± 5.22%; Inhibition rate (%) ([1]; 10 nM): 60.86 ± 4.03%; Inhibition rate (%) ([1]; 50 nM): 59.03 ± 1.64%; Inhibition rate (%) ([1]; 100 nM): 68.64 ± 2.03%; Inhibition rate (%) ([1]; 1 μM): 12.84 ± 1.03%; Inhibition rate (%) ([1]; 10 μM): 34.49 ± 4.49%; Inhibition rate (%) ([1]; 50 μM): 71.06 ± 4.08%; Inhibition rate (%) ([1]; 100 μM): 78.34 ± 4.39% |
| CCCCCCCCCC(=O)O [N-decanoic acid] | 131.26 ± 8.63 | 114.00 ± 11.2 | 94.34 ± 7.54 | 96.63 ± 6.99 | 143.94 ± 13.26 | 237.62 ± 17.5 | 147.74 ± 14.23 | 135.74 ± 15.2 | 127.34 ± 12.22 | – | – | – | – | – | – | – | – | – | Inhibition rate (%) ([1]; 2 nM): 35.04 ± 2.04%; Inhibition rate (%) ([1]; 5 nM): 31.86 ± 2.23%; Inhibition rate (%) ([1]; 10 nM): 66.11 ± 2.33%; Inhibition rate (%) ([1]; 50 nM): 75.38 ± 2.03%; Inhibition rate (%) ([1]; 100 nM): 75.54 ± 4.00%; Inhibition rate (%) ([1]; 1 μM): -32.33 ± 1.56%; Inhibition rate (%) ([1]; 10 μM): -54.38 ± 4.38%; Inhibition rate (%) ([1]; 50 μM): 41.08 ± 4.08%; Inhibition rate (%) ([1]; 100 μM): 47.98 ± 3.09% |
